Activity calls are given as the source filed them.
What was measured:
[1] = inhibitors of firefly luciferase expression or activity, dose response, H4 neuroglioma cells, luminescence (AID 1990); assay type: functional, cell-based
[2] = inhibitors of SNCA 5'UTR-driven reporter translation, confirmation, H4 neuroglioma cells, luminescence (AID 1988); assay type: functional, cell-based
[3] = Shn3 3'UTR reporter inhibitors, dose response, cell-based, Clone20 osteoblasts, firefly luciferase, cherry-picked (AID 624132); assay type: functional;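 further: firefly luciferase luminescence from reporter carrying the Shn3 3'UTR in osteoblasts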
[4] = HepG2 cell cytotoxicity, dose response, cytotoxicity control for Shn3 inhibitor project, CellTiter-Glo, cherry-picked (AID 624134); assay type: functional, cell-based
[5] = control 3'UTR Renilla luciferase suppression, dose response, counter-screen for Shn3 inhibitor project, cell-based, Clone20-Shn3RL, cherry-picked (AID 624133); assay type: functional
[6] = reduction of endogenous Shn3 mRNA, dose response, qPCR, Clone20 cells, cherry-pick (AID 743415); assay type: functional, cell-based
[7] = reduction of Shn3 3'UTR firefly luciferase signal, dose response, Schnurri-3 inhibitor project, cell-based, Clone20 osteoblasts, cherry-pick, set 2 (AID 720490); assay type: functional;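 further: actives lower the luminescence signal as inhibitors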
[8] = inhibitors of control Renilla luciferase reporter, dose response, counter-screen for Shn3 3'UTR targeting project, Clone20-Shn3RL cells, dual-Glo, cherry-pick, set 2 (AID 720724); assay type: functional, cell-based; details: Dual-Go Shn3RL
[9] = NIH-3T3 fibroblast cytotoxicity, dose response, cytotoxicity control, cell-based, fluorescence, Alamar Blue, secondary assay (AID 2327); assay type: functional;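 further: NIH-3T3 mouse fibroblasts cultured with fluconazole at 8 µg/mL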
[10] = C. albicans growth with fluconazole, confirmation, fluorescence, retest (AID 2467); assay type: functional, cell-based
[11] = THP-1 cell cytotoxicity, dose response, cytotoxicity control for non-replicating M. tuberculosis project (AID 489025); assay type: functional
[12] = Vero E6 cell cytotoxicity, dose response, cytotoxicity control for non-replicating M. tuberculosis project, secondary assay (AID 492998); assay type: functional, VeroE6; details: Vero C1008
[13] = molecular target: 1-phosphatidylinositol 4,5-bisphosphate phosphodiesterase gamma-1 (Homo sapiens, UniProt P19174); experiment: Counterscreen for inhibitors of phospholipase C isozymes (PLC-B3): Fluorescence-based biochemical high throughput dose response assay to identify inhibitors of phospholipase C isozymes (PLC-gamma1).
1-phosphatidylinositol 4,5-bisphosphate phosphodiesterase gamma-1, sequence (P19174 whole entry): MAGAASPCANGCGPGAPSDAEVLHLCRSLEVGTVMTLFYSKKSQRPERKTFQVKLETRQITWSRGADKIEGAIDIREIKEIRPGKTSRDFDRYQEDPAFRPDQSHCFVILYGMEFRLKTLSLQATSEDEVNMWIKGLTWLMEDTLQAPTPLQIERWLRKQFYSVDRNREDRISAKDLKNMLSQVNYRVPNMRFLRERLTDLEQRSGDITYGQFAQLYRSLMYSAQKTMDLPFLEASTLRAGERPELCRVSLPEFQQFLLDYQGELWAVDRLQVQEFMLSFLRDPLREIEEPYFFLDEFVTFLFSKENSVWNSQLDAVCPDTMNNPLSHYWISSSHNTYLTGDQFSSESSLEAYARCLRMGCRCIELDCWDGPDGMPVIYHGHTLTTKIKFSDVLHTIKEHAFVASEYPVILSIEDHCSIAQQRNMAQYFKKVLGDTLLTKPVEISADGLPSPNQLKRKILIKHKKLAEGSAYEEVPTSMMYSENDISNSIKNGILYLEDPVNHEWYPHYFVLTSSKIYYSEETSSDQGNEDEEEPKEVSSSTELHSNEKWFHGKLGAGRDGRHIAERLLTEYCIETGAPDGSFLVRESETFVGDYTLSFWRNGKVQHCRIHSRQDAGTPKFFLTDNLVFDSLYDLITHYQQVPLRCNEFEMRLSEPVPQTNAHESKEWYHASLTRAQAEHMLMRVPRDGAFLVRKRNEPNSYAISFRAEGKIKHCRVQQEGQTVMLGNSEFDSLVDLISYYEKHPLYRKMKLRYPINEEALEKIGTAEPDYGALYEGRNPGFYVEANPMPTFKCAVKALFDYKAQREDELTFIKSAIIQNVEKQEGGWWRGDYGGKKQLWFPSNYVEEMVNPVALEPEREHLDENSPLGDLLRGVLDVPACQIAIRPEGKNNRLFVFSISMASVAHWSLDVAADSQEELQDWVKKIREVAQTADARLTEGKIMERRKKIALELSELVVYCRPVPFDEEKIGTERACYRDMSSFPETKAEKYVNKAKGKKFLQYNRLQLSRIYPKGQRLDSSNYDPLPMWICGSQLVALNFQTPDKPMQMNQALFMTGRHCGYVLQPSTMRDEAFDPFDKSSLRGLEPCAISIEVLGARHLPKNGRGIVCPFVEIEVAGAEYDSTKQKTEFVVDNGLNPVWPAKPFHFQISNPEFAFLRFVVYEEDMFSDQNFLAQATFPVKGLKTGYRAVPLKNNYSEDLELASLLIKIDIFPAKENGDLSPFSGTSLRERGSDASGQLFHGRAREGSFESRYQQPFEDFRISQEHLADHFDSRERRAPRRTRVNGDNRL

[14] = molecular target: 1-phosphatidylinositol 4,5-bisphosphate phosphodiesterase beta-3 (Homo sapiens, UniProt Q01970); experiment: Fluorescence-based biochemical high throughput dose response assay to identify inhibitors of phospholipase C isozymes (PLC-B3).
1-phosphatidylinositol 4,5-bisphosphate phosphodiesterase beta-3, sequence (Q01970 whole entry): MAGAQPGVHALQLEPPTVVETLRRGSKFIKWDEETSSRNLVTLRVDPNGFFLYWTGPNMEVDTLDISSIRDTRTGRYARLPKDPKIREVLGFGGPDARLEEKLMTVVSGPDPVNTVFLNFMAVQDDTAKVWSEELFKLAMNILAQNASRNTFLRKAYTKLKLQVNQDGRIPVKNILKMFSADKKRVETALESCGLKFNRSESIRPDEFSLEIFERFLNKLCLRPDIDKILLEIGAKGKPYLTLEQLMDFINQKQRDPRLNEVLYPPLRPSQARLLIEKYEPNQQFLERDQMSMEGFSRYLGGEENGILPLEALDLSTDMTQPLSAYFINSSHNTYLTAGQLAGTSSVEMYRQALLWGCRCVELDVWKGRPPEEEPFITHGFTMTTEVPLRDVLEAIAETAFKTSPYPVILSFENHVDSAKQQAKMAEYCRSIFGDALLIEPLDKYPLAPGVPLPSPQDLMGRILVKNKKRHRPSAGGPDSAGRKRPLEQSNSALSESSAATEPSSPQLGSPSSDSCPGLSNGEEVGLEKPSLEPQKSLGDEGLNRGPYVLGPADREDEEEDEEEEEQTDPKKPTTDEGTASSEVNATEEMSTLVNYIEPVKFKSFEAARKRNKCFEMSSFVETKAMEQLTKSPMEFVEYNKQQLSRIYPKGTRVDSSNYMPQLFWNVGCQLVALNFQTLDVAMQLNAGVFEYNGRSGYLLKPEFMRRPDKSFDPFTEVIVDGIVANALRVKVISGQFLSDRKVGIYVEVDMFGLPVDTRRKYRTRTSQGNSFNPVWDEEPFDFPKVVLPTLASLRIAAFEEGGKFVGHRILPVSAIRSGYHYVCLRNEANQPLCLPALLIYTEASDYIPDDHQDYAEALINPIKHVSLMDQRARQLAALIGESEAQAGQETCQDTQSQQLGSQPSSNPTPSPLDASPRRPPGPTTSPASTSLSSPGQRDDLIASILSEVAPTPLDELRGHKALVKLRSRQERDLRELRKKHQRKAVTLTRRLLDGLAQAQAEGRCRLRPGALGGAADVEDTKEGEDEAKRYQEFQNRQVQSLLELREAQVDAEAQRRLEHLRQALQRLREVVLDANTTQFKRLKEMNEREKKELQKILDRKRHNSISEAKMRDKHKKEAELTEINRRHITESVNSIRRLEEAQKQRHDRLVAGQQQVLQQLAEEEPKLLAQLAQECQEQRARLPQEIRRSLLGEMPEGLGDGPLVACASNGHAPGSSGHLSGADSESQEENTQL

cells [15] = details: A549
[16] = inhibitors of intracellular T. cruzi replication, confirmation, NIH3T3 host cells, beta-gal luminescence (AID 2044); assay type: functional, cell-based;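 further: intracellular parasites grown in NIH/3T3 mouse fibroblasts as host cells; luminescent beta-galactosidase reporter signal from transgenic T. cruzi replicating inside host cells; inhibitors lower the luminescence signal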
[17] = cytotoxicity toward NIH3T3 fibroblasts, dose response, counter-screen, cell-based, ATP luminescence, mouse fibroblasts (AID 2010); assay type: functional;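 further: cells exposed to compound for about 90 hours before reading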
[18] = inhibitors of fibronectin matrix deposition, dose response, AH1F cells, Alexa488-FN fluorescence, cherry-picks (AID 1035475); assay type: functional, cell-based
CAAX prenyl protease 2 = molecular target: T1, CAAX prenyl protease 2 (Saccharomyces cerevisiae S288c, UniProt Q03530); assay type: biochemical
T1 sequence (Q03530 whole entry): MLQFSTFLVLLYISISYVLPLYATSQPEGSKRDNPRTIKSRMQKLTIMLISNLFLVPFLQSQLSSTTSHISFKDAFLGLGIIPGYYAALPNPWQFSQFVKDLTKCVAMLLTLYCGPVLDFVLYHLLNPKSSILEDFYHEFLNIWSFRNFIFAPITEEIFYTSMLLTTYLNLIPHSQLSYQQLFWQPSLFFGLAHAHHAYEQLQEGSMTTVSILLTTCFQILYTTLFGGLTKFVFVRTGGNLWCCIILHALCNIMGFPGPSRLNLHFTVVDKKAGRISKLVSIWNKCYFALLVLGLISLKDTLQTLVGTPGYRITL

[19] = molecular target: Endoplasmic reticulum aminopeptidase 1 (Homo sapiens, UniProt Q9NZ08); experiment: ERAP1 aminopeptidase inhibitors, dose response, biochemical, cherry-pick, set 2, plate reader (AID 743314)
Endoplasmic reticulum aminopeptidase 1, sequence (Q9NZ08 whole entry): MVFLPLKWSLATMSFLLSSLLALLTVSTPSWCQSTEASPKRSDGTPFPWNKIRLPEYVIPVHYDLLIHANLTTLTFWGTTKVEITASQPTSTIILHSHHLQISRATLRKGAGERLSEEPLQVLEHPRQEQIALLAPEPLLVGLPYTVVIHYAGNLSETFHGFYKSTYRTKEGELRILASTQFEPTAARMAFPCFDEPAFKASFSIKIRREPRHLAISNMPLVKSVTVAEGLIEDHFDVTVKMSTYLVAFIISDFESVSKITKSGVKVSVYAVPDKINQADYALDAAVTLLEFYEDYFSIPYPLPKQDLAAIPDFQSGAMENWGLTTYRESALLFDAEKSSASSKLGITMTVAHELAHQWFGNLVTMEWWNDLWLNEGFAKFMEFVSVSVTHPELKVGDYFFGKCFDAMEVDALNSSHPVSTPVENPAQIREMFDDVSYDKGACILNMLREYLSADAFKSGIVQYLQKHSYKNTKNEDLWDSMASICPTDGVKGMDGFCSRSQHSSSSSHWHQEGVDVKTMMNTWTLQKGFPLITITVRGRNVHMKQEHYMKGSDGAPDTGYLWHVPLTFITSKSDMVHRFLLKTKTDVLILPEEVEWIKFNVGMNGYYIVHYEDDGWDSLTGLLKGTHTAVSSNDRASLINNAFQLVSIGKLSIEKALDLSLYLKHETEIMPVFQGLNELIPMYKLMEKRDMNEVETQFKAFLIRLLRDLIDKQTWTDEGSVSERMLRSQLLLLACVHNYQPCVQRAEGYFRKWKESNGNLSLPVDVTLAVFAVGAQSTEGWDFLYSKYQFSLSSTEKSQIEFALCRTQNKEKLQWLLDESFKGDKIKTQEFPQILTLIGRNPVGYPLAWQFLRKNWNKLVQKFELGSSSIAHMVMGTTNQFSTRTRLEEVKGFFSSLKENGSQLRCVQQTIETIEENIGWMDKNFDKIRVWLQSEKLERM

[20] = molecular target: T2, Acyl-homoserine lactone acylase PvdQ (Pseudomonas aeruginosa (strain LESB58), UniProt Q9I194); experiment: P. aeruginosa PvdQ acylase inhibitors, dose response, biochemical, fluorescence, plate reader and imaging, cherry-picks (AID 493231)
T2 sequence (Q9I194 whole entry): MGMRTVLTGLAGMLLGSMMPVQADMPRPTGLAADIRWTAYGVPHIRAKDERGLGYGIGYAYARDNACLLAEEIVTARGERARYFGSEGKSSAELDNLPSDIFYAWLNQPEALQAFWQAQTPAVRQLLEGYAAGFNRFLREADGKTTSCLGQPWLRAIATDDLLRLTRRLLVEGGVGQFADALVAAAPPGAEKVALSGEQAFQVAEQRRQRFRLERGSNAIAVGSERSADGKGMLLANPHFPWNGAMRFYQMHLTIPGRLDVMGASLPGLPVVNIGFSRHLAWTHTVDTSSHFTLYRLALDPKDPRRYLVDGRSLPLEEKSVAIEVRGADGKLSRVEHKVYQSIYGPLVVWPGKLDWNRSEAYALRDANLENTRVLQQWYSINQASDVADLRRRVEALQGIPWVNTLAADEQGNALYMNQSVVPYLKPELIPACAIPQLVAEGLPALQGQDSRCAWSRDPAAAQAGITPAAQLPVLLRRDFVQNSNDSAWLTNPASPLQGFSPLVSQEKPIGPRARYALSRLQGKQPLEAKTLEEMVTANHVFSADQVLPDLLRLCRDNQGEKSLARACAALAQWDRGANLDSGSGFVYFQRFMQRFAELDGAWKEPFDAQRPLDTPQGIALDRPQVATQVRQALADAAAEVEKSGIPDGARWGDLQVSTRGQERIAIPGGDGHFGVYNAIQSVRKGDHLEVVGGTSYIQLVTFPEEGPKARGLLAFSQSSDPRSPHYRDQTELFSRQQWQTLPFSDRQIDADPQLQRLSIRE

[21] = molecular target: T3, Oxysterols receptor LXR-beta (Homo sapiens, UniProt P55055); assay type: functional, cell-based;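 further: Cell-based luminescence dose-response assay of agonist activity at LXR, run as a confirmatory counterscreen to a daf-12 agonist screen; HEK293 cells with Gal4-LXR fusion and GAL4-driven luciferase reporter; agonist potency from rising luciferase signal of a Gal4-LXR reporter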
T3 sequence (P55055 whole entry): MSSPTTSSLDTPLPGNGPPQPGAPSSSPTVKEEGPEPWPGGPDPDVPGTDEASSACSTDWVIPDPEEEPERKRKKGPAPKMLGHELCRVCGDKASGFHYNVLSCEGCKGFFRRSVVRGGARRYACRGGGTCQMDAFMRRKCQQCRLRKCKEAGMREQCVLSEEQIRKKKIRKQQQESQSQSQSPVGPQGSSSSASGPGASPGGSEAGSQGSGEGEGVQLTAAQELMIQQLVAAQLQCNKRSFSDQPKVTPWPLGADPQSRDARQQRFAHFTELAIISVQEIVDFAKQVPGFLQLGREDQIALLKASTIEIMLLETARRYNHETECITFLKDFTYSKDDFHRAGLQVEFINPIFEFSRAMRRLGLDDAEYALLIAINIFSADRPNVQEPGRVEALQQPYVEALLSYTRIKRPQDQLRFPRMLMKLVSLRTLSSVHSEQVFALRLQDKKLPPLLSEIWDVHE

cells [22] = experiment: cells
[23] = HepG2 cell cytotoxicity, dose response, cytotoxicity control, ATP luminescence, cherry-pick, activator set 2 (AID 1053143); assay type: functional, cell-based

## COc1ccc(NC(=O)c2nc(S(=O)(=O)Cc3cccc(C)c3)ncc2Cl)c(OC)c1
[1]
  EC50: 19.2 µM (active)
[2]
  EC50: 36.7 µM (active)
[3]
  AC50: 0.299 µM (active)
[4]
  AC50: > 70 µM (inactive)
[5]
  AC50: 8.06 µM (active)
[6]
  AC50: 10 µM (active)
[7]
  AC50: 1.48 µM (active)
[8]
  AC50: 3.35 µM (active)

## Cc1ccc(S(=O)(=O)CCC(=O)Nc2nc(-c3ccncc3)cs2)cc1
[9]
  EC50: 17.1 µM (inconclusive)
[10]
  EC50: 6.58 µM (active)
[11]
  CC50: > 40 µM (active)
[12]
  CC50: > 20 µM (active)
[13]
  IC50: > 122 µM (inactive)
[14]
  IC50: > 122 µM (inactive)

## Cc1ccc2c(c1)N(C(=O)CCC(=O)NCCCN1CCOCC1)CC(C)O2 (centres undefined)
Cells [15]
  AC50: > 52 µM (inactive)

## O=C(Nc1cc(Sc2nc3ccccc3s2)cc([N+](=O)[O-])c1)c1ccccc1F
[16]
  EC50: 1.92 µM (active)
[17]
  EC50: > 60 µM (not active)
[18]
  AC50: 24.3 µM (active)

## CCOC(=O)C[n+]1ccc2c([nH]c3ccccc32)c1C
CAAX prenyl protease 2
  AC50: > 100 µM (inactive)
[19]
  AC50: 11.4 µM (active)

## COc1ccc(-c2cc(=O)c3ccccc3s2)cc1
[20]
  AC50: > 100 µM (inactive)
[21]
  EC50: > 67.5 µM (inactive)
Cells [22]
  EC50: > 67.5 µM (inactive)

## O=C(Nc1ncccc1O)c1ccc(Oc2ccccc2)cc1
[23]
  AC50: 26 µM (active)

Source: ChEMBL document CHEMBL1201862, “PubChem BioAssay data set” (2004)
